Experimental data: patent US20110224256A1, “T[…] THE TREATMENT OF PSYCHIATRIC DISORDERS” (priority 2008, published 2011)
Where “and” joins values, the source holds several entries; their conditions need not be identical. Equal entries are not always repeated. Entries after “also recorded” stand apart in the source; their conditions may differ. Structures can show the parent of a compound that is named as a salt.

Key:
[1] = test system: dopamine receptors D1, D2 long, D4 and D5 mRNA; assay: D1, D2 long, D4 and D5 receptor mRNA by Q-PCR after juvenile MPH exposure; type: in vivo, Sprague-Dawley rats; conditions: MPFCx, 25 days after cessation of MPH, P>0.1
[2] = 0.5 mg/kg i.p., within 5 min, rats; cited from earlier work
D3 receptor mRNA = D3 receptor mRNA by Q-PCR after juvenile drug exposure; type: in vivo, Sprague-Dawley rats; conditions: for reduction in D3 receptor mRNA: MPH 2 mg/kg i.p. twice daily P20-P35, HCl
D2 dopamine receptor = D2 dopamine receptor binding in the striatum by quantitative autoradiography after juvenile methylphenidate; type: in vivo, rats; conditions: 40 days of age, postnatal day 20-35
Method: FIG. 7. In this study, rats were administered a dosage of 2 mg/kg methylphenidate either by osmotic minipump (continuous release) or twice daily by interperitoneal injection (intermittent) between the ages of postnatal day 20-35. D2 dopamine receptor binding was assessed in the striatum at 40 days of age using quantitative autoradiography (see Andersen et al., Synapse 37:167-169 (2000)).

Sprague-Dawley male rats = assay: Place conditioning to 10 mg/kg cocaine at P60 after juvenile drug exposure; type: in vivo; conditions: juvenile exposure P20-P35: MPH 2 mg/kg, ±7-OHDPAT 0.3 mg/kg, or MPH 2 mg/kg + Naf 0.05 mg/kg; tested at P60; HCl
Method: Juvenile Sprague-Dawley male rats were treated with MPH (2 mg/kg, i.p. twice daily), ±7-OHDPAT (0.3 mg/kg, i.p. twice daily), Naf (0.05, 0.5 and 5 mg/kg; i.p. twice daily) or VEH (i.p. twice daily) between the ages of P20 and P35 (Andersen et al., Nat. Neurosci., 5:13-14 (2002)). The MPH dose was selected on the basis of previous studies (see Andersen et al., Nat. Neurosci., 5:13-14 (2002); Bolanos et al., Biol. Psychiatry, 54:1317-1329 (2003); and Mague et al., Biol. Psychiatry, 57:120-125 (2005)), unpublished observations that we find similar behavioral effects if MPH is given i.p. or orally at this dose, and evidence that it approximates a clinically relevant dose in humans based on plasma levels (see Wargin et al., J. Pharmacol. Exp. Ther., 226:382-386 (1983); and Kuczenski, R. & Segal, D. S. J. Neurosci., 22:7264-7271 (2002)). Clinically therapeutic doses of MPH yield plasma levels between 8 and 40 ng/mL (Swanson et al., Behay. Brain Res., 130:73-78 (2002); Teicher et al., Ann. N. Y. Acad. Sci., 1071:313-323 (2006)), with 0.5 mg/kg i.p., achieving plasma levels of 36 ng/mL within 5 min in rats (Berridge et al., Biol. Psychiatry, 60:1111-1120 (2006)). Doses for juvenile exposure to ±7-OHDPAT are based on Neisewander et al., Neuropsychopharmacology, 29:1479-1487 (2004), and cortical microinjections of 10 µg/side were derived from Boulay et al. Prog. Neuropsychopharmacol. Biol. Psychiatry, 24:39-49 (2000). Naf doses below 1 mg/kg have negligible D2 receptor occupancy (Sautel et al., J. Pharmacol. Exp. Ther., 275:1239-1246 (1995)) and are behaviorally effective (Richtand et al., Brain Res., 867:239-242 (2000)). Subjects were weighed daily at 09.00 h and injected with their assigned drug; the second injection was administered 4 h later at 13.00 h. This regimen is designed to match the twice-daily dosing used by children, taking into account the higher metabolic rates of rats (Wargin et al., J. Pharmacol. Exp. Ther., 226:382-386 (1983)). After the second drug administration on P35, the rats received no further treatments until behavioral testing at P60.
Rats treated between P20 and P35 with either Naf (0, 0.05, 0.5 or 5.0 mg/kg; n=7-9), ±7-OHDPAT (0.3 mg/kg; n=9), MPH (2 mg/kg; n=9), or a combination of 2 mg/kg MPH and 0.05 mg/kg Naf (MPH/Naf; n=8) were tested at P60 for place conditioning to 10 mg/kg cocaine. According to standard laboratory methods (Andersen et al., Nat. Neurosci., 5:13-14 (2002); Carlezon, Methods Mol. Med., 84:243-249 (2003)), unbiased place conditioning chambers consisted of two large (24×18×33) side compartments separated by a small (12×18×33 cm) middle compartment. Screening was conducted for 30 min on Day 1. Rats were placed in the middle compartment and allowed to freely explore the apparatus. […] Two days of conditioning (with two sessions per day) occurred on Days 2 and 3 for 60 min (Andersen et al., Nat. Neurosci., 5:13-14 (2002); Carlezon, Methods Mol. Med., 84:243-249 (2003)). During the conditioning sessions, rats received a 1 mL/kg i.p. injection of VEH in the morning (09.00 h) and confined to one side. The rats were then returned to the home cage. Four hours later, rats received 10 mg/kg cocaine and confined to the other side. Sides differed in floor texture, wall colors and lighting, and assignments were counterbalanced. On Day 4, rats were permitted to freely explore the entire apparatus for 30 min in a drug-free state.

## COC(=O)C(c1ccccc1)C1CCCCN1 (stereo not drawn) [MPH, d,l-Methylphenidate HCl]
[1]
  changes in other dopamine receptor subtype mRNA (D1, D2 long, D4, D5): No other significant changes
[2]
  plasma levels: 36 ng/mL
D3 receptor mRNA; MPFCx, assessed at P40
  reduction in D3 receptor mRNA: 28.9±8.3% and 28.9%
D3 receptor mRNA; MPFCx, corrected by GAPDH, juvenile MPH 2 mg/kg or MPH + 0.05 mg/kg Naf, F3,20=8.76, P<0.001
  D3 mRNA levels in the place-conditioned animals: significantly changed
D3 receptor mRNA; MPFCx, relative to VEH controls, 25 days post-exposure (P60)
  reduction in D3 receptor mRNA: 23.8±6.7% and 23.8%
D3 receptor mRNA; accumbens or striatum, MPH-exposed, P>0.5
  D3 mRNA change: did not change
D2 dopamine receptor; 2 mg/kg by osmotic minipump (continuous release)
  D2 receptor density: but not when administered by continuous release
D2 dopamine receptor; 2 mg/kg twice daily by intraperitoneal injection (intermittent)
  D2 receptor density: reduced significantly
Sprague-Dawley male rats
  place conditioning to 10 mg/kg cocaine associated environment (pre- vs. post-conditioning): Place aversion; also recorded: aversion to the cocaine-associated environment
